The values below come from patent publication US12516038B2, “Inhibitors of antigen presentation by HLA-DR” (Janssen Pharmaceutica NV, priority 2020, dated 2026).

For one assay, the target named is HLA-DRB1*0401 (Homo sapiens (Human), UniProt P01903+P01911, A100K/A169T/DEL228-266/F76Y/I96L/K127E/L162R/M171V/N62H/P40V/Q125Y/R42H/S133A/S149N/S66Y/V115G/V209L/W38E). As to the kind of experiment: HLA-DR4 HTRF assay. In kind it is binding. The settings on record: inhibition of loading of Alexa Fluor 647-labeled Cit-CII peptide onto HLA-DR4 (CLIP cleaved). In short, it runs like this: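 HLA-DRB1*04:01 construct (α/β fused to human Fc, CLIP pre-cleaved by HRV3C overnight at 4° C) at 3 nM was preincubated 45 min with compound and 1 nM anti-Fc-Tb donor, then 40 nM Alexa647-Cit-CII1236-1249 peptide added. After 90 min at 37° C, the 665/620 nm HTRF ratio gave % inhibition; IC50 by nonlinear regression.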

Assay [1] deals with HLA-DR4 restricted mouse T cell hybridoma line (DR4.CII.36.8) with HLA-DRB1*04:01-expressing Boleth cells. As to the kind of experiment: HLA-DR4-restricted peptide-specific T cell-based assay (hybridoma assay). Particulars: inhibition of IL-2 production, CII259-273 peptide presented by Boleth cells, 6 h. In short, it runs like this: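 Boleth cells (HLA-DRB1*04:01 B cell line) pre-incubated with compound 1 h at 37° C. in DMEM/1% FCS, then DR4.CII.36.8 mouse T cell hybridoma (CII259-273-specific) added for 6 h with CII259-273 peptide. Supernatant mouse IL-2 by AlphaLISA; IC50 by 4-PL fit of 8-point duplicate titrations.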

SMILES strings stand for the structures.

As usually defined, the IC50 is the midpoint of a concentration-inhibition curve. Low readings indicate greater potency, high ones weaker potency.

Regarding `Cc1cc([C@H](Oc2cc3c(cc2F)C(=O)CCO3)c2ccc(C(N)=O)cc2)cc(C)n1` (single isomer, unassigned) [Example 109a, (*R)-4-((2,6-dimethylpyridin-4-yl)((6-fluoro-4-oxochroman-7-yl)oxy)methyl)benzamide], the figures for the IC50 (at HLA-DRB1*0401; in assay [1]) were 210 nM and 1100 nM, respectively.

For the molecule `Cc1cc([C@@H](Oc2cc3c(cc2F)C(=O)CCO3)c2ccc(C(N)=O)cc2)cc(C)n1` (single isomer, unassigned) [Example 109b, (*S)-4-((2,6-dimethylpyridin-4-yl)((6-fluoro-4-oxochroman-7-yl)oxy)methyl)benzamide], the IC50 against HLA-DRB1*0401 came out at 230 nM; in assay [1], 12000 nM.

Turning to `Cc1cc([C@H](Oc2ccc3c(c2C#N)OCCC3=O)c2ccc(C(N)=O)cc2)cc(C)n1` (single isomer, unassigned) [Example 110a, (*R)-4-(((8-cyano-4-oxochroman-7-yl)oxy)(2,6-dimethylpyridin-4-yl)methyl)benzamide], the IC50 at HLA-DRB1*0401 came to 550 nM; in assay [1] (Mus musculus, T-cell) it was 120 nM.

For the molecule `Cc1cc([C@@H](Oc2ccc3c(c2C#N)OCCC3=O)c2ccc(C(N)=O)cc2)cc(C)n1` (single isomer, unassigned) [Example 110b, (*S)-4-(((8-cyano-4-oxochroman-7-yl)oxy)(2,6-dimethylpyridin-4-yl)methyl)benzamide], the IC50 at HLA-DRB1*0401 came out at 610 nM; in assay [1] (Mus musculus, T-cell) it was 790 nM.

For `Cc1cc([C@H](Oc2ccc3c(c2C)OCCC3=O)c2ccc(C(N)=O)cc2)cc(C)n1` (single isomer, unassigned) [Example 111a, (*R)-4-((2,6-dimethylpyridin-4-yl)((8-methyl-4-oxochroman-7-yl)oxy)methyl)benzamide], the IC50 against HLA-DRB1*0401 is 490 nM; in assay [1] (Mus musculus, T-cell), 600 nM.

Regarding `Cc1cc([C@H](Oc2ccc3c(c2C)OC(C)(C)CC3=O)c2ccc(C(N)=O)cc2)cc(C)n1` (single isomer, unassigned) [Example 112a, (*R)-4-((2,6-dimethylpyridin-4-yl)((2,2,8-trimethyl-4-oxochroman-7-yl)oxy)methyl)benzamide], the IC50 amounted to 760 nM against HLA-DRB1*0401 and 410 nM in assay [1] (Mus musculus, T-cell).

For `Cc1cc([C@@H](Oc2ccc3c(c2C)OC(C)(C)CC3=O)c2ccc(C(N)=O)cc2)cc(C)n1` (single isomer, unassigned) [Example 112b, (*S)-4-((2,6-dimethylpyridin-4-yl)((2,2,8-trimethyl-4-oxochroman-7-yl)oxy)methyl)benzamide], the IC50 at HLA-DRB1*0401 came to 600 nM; in assay [1] (Mus musculus, T-cell) it was 4000 nM.

Take `CC[C@@H]1CC(=O)c2ccc(OCc3ccncc3OC)cc2O1` (single isomer, unassigned) [Example 119a, (*R)-2-ethyl-7-((3-methoxypyridin-4-yl)methoxy)chroman-4-one]: the IC50 turned out to be 540 nM at HLA-DRB1*0401 and 13000 nM in assay [1] (Mus musculus, T-cell).

Regarding `CC[C@H]1CC(=O)c2ccc(OCc3ccncc3OC)cc2O1` (single isomer, unassigned) [Example 119b, (*S)-2-ethyl-7-((3-methoxypyridin-4-yl)methoxy)chroman-4-one], the IC50 against HLA-DRB1*0401 is 690 nM; in assay [1] (Mus musculus, T-cell), above 15000 nM.

In the case of `Cc1c(O[C@@H]2CCc3cc(C(N)=O)ccc32)ccc2c1OCCC2=O` (single isomer, unassigned) [Example 121a, (*R)-1-((8-methyl-4-oxochroman-7-yl)oxy)-2,3-dihydro-1H-indene-5-carboxamide], the IC50 at HLA-DRB1*0401 was 930 nM; in assay [1] (Mus musculus, T-cell), above 15000 nM.

On to `Cc1c(O[C@@H]2CCCc3cc(C#N)ccc32)ccc2c1OCCC2=O` (single isomer, unassigned) [Example 122a, (*R)-5-((8-methyl-4-oxochroman-7-yl)oxy)-5,6,7,8-tetrahydronaphthalene-2-carbonitrile], for which the IC50 amounted to 540 nM against HLA-DRB1*0401 and 6300 nM in assay [1] (Mus musculus, T-cell).

`Cc1c(O[C@H]2CCCc3cc(C#N)ccc32)ccc2c1OCCC2=O` (single isomer, unassigned) [Example 122b, (*S)-5-((8-methyl-4-oxochroman-7-yl)oxy)-5,6,7,8-tetrahydronaphthalene-2-carbonitrile]: the IC50 worked out at 930 nM against HLA-DRB1*0401 and 15000 nM in assay [1] (Mus musculus, T-cell).
